Values of other authors, collected in US10786601B2, “Composition comprising hyaluronic acid and mepivacaine” (Teoxane, priority 2013, dated 2020).

For `Cc1cccc(C)c1NC(=O)C1CCCCN1C` (racemic) [mepivacaine], the pKa is given as 7,6.
